Two molecules from paper PMC11994314, “Binding mode between peptidyl-tRNA hydrolase and the peptidyl-A76 moiety of the substrate” (The Journal of Biological Chemistry, 2025) can be followed below.

In series [1] the target is T1, TtPth (Thermus thermophilus peptidyl-tRNA hydrolase) (Thermus thermophilus, UniProt Q5SHZ2).
T1 construct: gene pth; wild type, full length (183 residues inferred from deletion of C-terminal 16 leaving Gly167 as last residue); monomer; wild type for crystals expressed and purified as described previously
T1 sequence (Q5SHZ2 whole entry): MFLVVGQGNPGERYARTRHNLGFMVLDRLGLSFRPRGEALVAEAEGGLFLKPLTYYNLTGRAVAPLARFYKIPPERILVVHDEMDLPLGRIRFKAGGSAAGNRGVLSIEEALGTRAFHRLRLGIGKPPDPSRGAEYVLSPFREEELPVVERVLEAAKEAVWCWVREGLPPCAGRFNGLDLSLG
As to the kind of experiment: X-ray crystal structure (co-crystallisation), […] Å. It counts as binding. The conditions noted are these: 40 mM AMP in reservoir, MES pH 5.8, 20 °C; active site cleft, acidic pocket, A76 mimic.

Series [2] deals with the molecule itself. As to the kind of experiment: crystal structure; crystals of ΔC16 TtPth (13 mg/ml, with 20 mM 3′-(N-acetyl-L-alanyl)amino-3′-deoxyadenosine, which was not seen in the density); 0.5 M (NH4)2SO4, 0.1 M Tris-HCl pH 7.5, 30% PEG600, 10% glycerol, 20 °C; contact between crystallographically related molecules, 2.10 Å.

Turning to `Nc1ncnc2c1ncn2[C@@H]1O[C@H](COP(=O)(O)O)[C@@H](O)[C@H]1O` [adenosine 5′-monophosphate], in series [1], the “X-ray crystal structure (co-crystallisation), 1.60 Å” value is on record as “The structure of TtPth⋅AMP revealed that AMP is bound to an acidic pocket”.

B1: C-terminal 16-amino acid deletion mutant of Thermus thermophilus HB8 peptidyl-tRNA hydrolase (ΔC16 TtPth) (domain or fragment, UniProt Q5SHZ2 1-167, looked up)
chain: MFLVVGQGNPGERYARTRHNLGFMVLDRLGLSFRPRGEALVAEAEGGLFLKPLTYYNLTGRAVAPLARFYKIPPERILVVHDEMDLPLGRIRFKAGGSAAGNRGVLSIEEALGTRAFHRLRLGIGKPPDPSRGAEYVLSPFREEELPVVERVLEAAKEAVWCWVREG
notes: Peptidyl-tRNA hydrolase (Pth, Pth1 type) of Thermus thermophilus HB8, lacking the C-terminal 16 amino acid residues (the C-terminal α-helix); the construct ends with Arg165-Glu166-Gly167; The His-tag was removed with thrombin; also called TtPth⋅tripeptide; C-terminal α-helix (C-terminal 16 amino acid residues) deletion mutant; source: E. coli BL21(DE3), purified (Ni-chelating column, thrombin …)
B1: the binding result in series [2] is “binds”.
